Data published in patent publication US20110269166A1, “SEALING SURFACE SAMPLING PROBE APPLIED TO BLOOD SPOTS AND TISSUES” (UT-BATTELLE, LLC, priority 2010, published 2011).

Assay: SSSP-MS/MS spot sampling of whole-body thin tissue sections of a propranolol dosed mouse
Type: in vivo
Conditions: male CD-1 mouse, propranolol 7.5 mg/kg i.v., sacrificed 60 min post-dose, 40 μm section, ESI+
Description: At 60 min post-dose, mice were euthanized with an isoflurane overdose and immediately frozen in dry ice/hexane. The frozen mice were embedded/blocked in 2% aqueous carboxymethyl cellulose. Sagittal whole-body cryosections (40 μm thick) were prepared using a Leica CM3600 cryomacrotome and collected onto adhesive tape (8″×3″, 810 Scotch® Brand Magic™ Tape, 3M) then freeze-dried within the chamber of the cryomacrotome. Prior to analysis using the SSSP, tissue sections were stored in a desiccator at room temperature. Color images of the tissue sections were acquired using a HP Scanjet 4370 flat-bed scanner (Hewlett-Packard, Palo Alto, Calif., USA).
The inlet and outlet of the SSSP (“TLC-MS interface”, CAMAG, Muttenz, Switzerland) were coupled to an ACQUITY UltraPerformance Liquid Chromatography (UPLC) system (Waters Corporation, Manchester, UK) and to a 4000 QTRAP® mass spectrometer (MDS SCIEX, Concord, Ontario, Canada), respectively (see FIG. S1 in the Supplemental section). The gas pressure applied via a piston to the plunger of the SSSP interface was about 5 bar. The flow rate of the extraction solvent was 200 μL/min in all cases. For positive ion mode ESI, the emitter voltage was 5 kV and the turbo sprayer heater temperature was 300° C. For positive ion mode APCI, heated nebulizer probe temperature and needle current were 350° C. and 5 μA, respectively.
The extraction solvent flow paths and the individual steps of the surface sampling process with the SSSP are illustrated in FIGS. 3A-3E and 4A-4E. The solvent inlet capillary to the SSSP was connected to the UPLC pump, while the outlet capillary was connected to the ion source (ESI or APCI) of the mass spectrometer. At the beginning of a surface sampling experiment, a sample was positioned under the SSSP plunger while the extraction solvent flowed from the UPLC through a loop into the ion source (as in FIGS. 3A and 4A). Next, the SSSP stainless steel plunger, with 4-mm-diameter disk shape cutting edge, was lowered to seal the sampling area by cutting into and compressing the sample substrate (paper or adhesive tape in this case) (as in FIGS. 3B and 4B). By switching the valve from standby to extraction mode, the solvent previously being pumped directly to the ion source was diverted to the surface, where it extracted the analyte, and any other soluble components, and carried them into the ion source (FIGS. 3C and 4C). After a suitable extraction time (typically 60 seconds), the valve was switched back to direct the extraction solvent from the UPLC through the loop into the ion source (FIGS. 3D and 4D). […] In the final step of the surface sampling process, the plunger was raised up from the surface (FIGS. 3E and 4E) and then a cleaning station was positioned under the probe. Here, using push button control, the sampling face of the plunger was cleaned of accumulated particulate material using a stream of pressurized nitrogen. In the case of the tissue sections on tape, the probe actually cut out a section from the sample which stayed with the probe until removed by this gas jet cleaning. […] This washed the SSSP plunger face and tubing from the plunger to the valve and on into the ion source. Given 15 or 30 s to position the probe for analysis of a DBS or tissue sample spot, respectively, a 60 second extraction time and 60 s wash time to eliminate carryover, spot-to-spot analysis time was either […].
The tissue section was collected onto an adhesive tape substrate, which is a common format to collect whole-body tissue sections for WBA analyses.

Compound | SRM signal in brain (spot 2) | SRM signal in heart (spot 5) | SRM signal in kidney (spot 3) | SRM signal in liver (spot 1) | SRM signal in lung (spot 6)
CC(C)NCC(O)COc1cccc2ccccc12 (stereo not drawn) [propranolol, reference compound] | High | – | – | – | –
hydroxypropranolol glucuronide | not detected | Much lower | highest | highest | Much lower
